Here are results for 7 compounds from patent publication US20240217946A1, “ANTIDEPRESSANT AND ANXIOLYTIC SUBSTITUTED CINNAMAMIDE COMPOUND” (TASLY PHARMACEUTICAL GROUP CO., LTD., priority 2021, published 2024).

The test system of one experiment is ICR mice. Briefly: Elevated plus maze experiment in mice, single administration. It is filed as in vivo. To be noted: 30 min after single administration. The procedure:
50 male ICR mice were randomly divided into 5 groups (a solvent control group, estazolam group, M2 high dosage group, M2 medium dosage group, M2 low dosage group), with 10 mice in each group. The compound M2 high, medium and low dosage groups were intragastrically administered at 20 mg/kg. 10 mg/kg and 5 mg/kg, respectively; the positive drug estazolam was intragastrically administered at 2.5 mg/kg; and the solvent control group was gavaged with an equal volume of solvent. Behavior test was performed in each group 30 min after single administration. The experiments were required to be conducted between 8:00 am and […], and all animals entered the test laboratory on the previous day.
The laboratory was dimly lit (with the lowest brightness that can distinguish the subtle activities of mice at a distance of 1.5 m) and the brightness was kept constant, with a room temperature of about 20° C., and kept quiet. Before the maze test, each mouse was placed in a 35 cm*10 cm*5 cm plastic box and left to explore freely for 5 min and then quickly placed at the central platform of an elevated plus maze, with its head facing one of the open arms, and the following indexes were recorded upon release. Each mouse was tested for 5 min. Observers observed and recorded animal activities at a distance of 1.5 m. At intervals, the maze was wiped with a wet cloth to remove feces, and then wiped with a dry cloth before a next mouse was tested.
• (1) The number of open arm entries (OE): the number of entries into any open arm, based on the fact that all four claws of the mouse entered the arm, and a complete exit of one claw from the arm indicated the completion of the entry activity; • (2) open arm time (OT): the time of entering an open arm, with the unit of seconds; • (3) the number of close arm entries (CE): the number of entries into any close arm, based on the fact that all four claws of the mouse entered the arm; • (4) close arm time (CT): the time of entering a close arm, with the unit of seconds; • (5) percentage of open arm time: OT %=OT/(OT+CT)*100%; and • (6) percentage of open arm entries: OE %=OE/(OE+CE)*100%.
70 male ICR mice were randomly divided into 7 groups (a solvent control group, estazolam group, compound M2 group, compound II-3 group, compound II-4 group, compound II-5 group, and compound II-10 group), with 10 mice in each group. The dosage of M2 and its four structurally similar compounds was determined as 20 mg/kg according to the experimental results of 3.1: the positive drug estazolam was administered intragastrically at 2.5 mg/kg; and the solvent control group was gavaged with an equal volume of solvent. Behavior test was performed in each group 30 min after single administration. The experiments were required to be conducted between 8:00 am and […], and all animals entered the test laboratory on the previous day.
The behavioral test method and behavioral observation indexes were the same as those in 3.1.
(§1) Data was expressed as mean±standard (mean±SD) difference, and statistics of data differences were made by one-way analysis of variance (ANOVA) or nonparametric test, and differences between groups were determined by P<0.05.

Another experiment relates to SD rats. Kind of experiment: Vogel drinking conflict experiment in rats, single administration. It is filed as in vivo. To be noted: 30 min after single dose, punishment stage 3 min, n = 8. The protocol:
75 male SD rats, with the body weight of 180-220 g, were fed adaptively for 1 week, water deprived for 24 h for training period test. The animals screened to be qualified were randomly divided into 7 groups (a solvent control group, estazolam group, compound M2 group, compound II-3 group, compound II-4 group, compound II-5 group and compound II-10 group) according to their body weight, with 8 rats in each group. […] results of 3.1: the positive drug estazolam was administered intragastrically at 1.24 mg/kg; and the solvent control group was gavaged with an equal volume of solvent. The grouped animals were continued to be water deprived for 24 h and were given a single dose, and tested in a punishment experiment 30 min after the single dose.
The experiment was carried out in two stages. The first stage is a training stage, in which 24 h after water deprivation, animals were placed in an operation box separately, and were allowed to fully explore until they found the bottle mouth and started to lick water (with an intensity of electric shock being 0 mA), a counter automatically recorded the number of licks within 3 min, and the animals that licked water less than 300 times were eliminated.
Observation index: the number of water licks of rats in the punishment stage.
as §1

The test system of experiment [1] is pyramidal neurons in prefrontal PrL brain area. Briefly: Brain slice electrophysiology, sEPSC of mPFC pyramidal neurons. It is filed as cell-based, mice. The following applies: antagonist at working concentration 10 μM. The source says:
2) Brain Slice Electrophysiological Experiment: For Detecting Effect of Compound M2 on mPFC Excitatory Synaptic Transmission • Animal: neonatal mice C57 BL/6J (20-30 days). • Instrument: vibratome (Leica), brain slice electrophysiological system (Axon). • Brain slice electrophysiological experiment method • SEPSC experiment method: Neonatal C57 mice were anesthetized and then perfused with artificial cerebrospinal fluid (ACSF). After decapitation, brain tissue was taken quickly and sliced by vibratome, with a thickness of a brain slice being 300 μm. After the brain slices were incubated at 28 °C for 1 h, whole-cell recordings of mPFC pyramidal neurons were made using a voltage clamp (−70 mV) through a brain slice electrophysiological system. The baseline recording time was 6 min, and then a drug to be tested was added through a perfusion system (the drug was dissolved using ACSF), and the recording time after adding the drug was 6-10 min. Recorded data was analyzed using Minianalysis software, and effects of the drug to be tested on sEPSC frequency and amplitude of medial prefrontal pyramidal neurons in C57 mice were compared.
All data analysis was done using spss data processing software, and data was expressed by Mean±s.e.m. One-way ANOVA was used to analyze the effect of compound M2 and the effect of compound M2 under the action of dopamine receptor antagonists on sEPSC current: and paired t test was used to analyze sEPSC experimental results. * was marked when p<0.05.
During the experiment, 10 μM Bicuculine was added to the solution to block GABA receptor, so as to record sEPSC of pyramidal neurons. The experiment investigated effects of different concentrations of compound M2 on spontaneous excitatory postsynaptic […] (sEPSC) of pyramidal neurons in prefrontal PrL brain area, as shown in FIG. 2.

Experiment [2] concerns NA reuptake in rat brain synaptosomes. Briefly: 3H-NA reuptake by rat brain synaptosomes. It is filed as biochemical. To be noted: 100 μM, positive control. The source says: At present, it is believed that absolute or relative deficiencies of the central monoamine neurotransmitters 5-hydroxytryptamine (5-HT), norepinephrine (NA) and dopamine (DA) are closely related to depression and anxiety.
Synaptosomes were separated using methods in literature to prepare brain synaptosomes. SD rats were rapidly decapitated with a small animal decapitator. After decapitation, brains were taken out quickly and precooled in an ice-water mixture, and the pia mater and vascular tissue were removed. Brain tissue was taken out. 10 times volume (ml/g) of 10 mM Tris HCl buffer (containing 0.32 M sucrose, pH 7.4) was added, an ultrasonic cell pulverizer was used for homogenization (maintaining at a low temperature), and the brain tissue was homogenized and centrifuged for 10 min (4° C., 1,000 g). After balanced centrifugation (1500 g, 10 min) at 4° C., precipitate was discarded, then supernatant was taken, and centrifugation (20000 g) was performed again for 30 min. The supernatant was discarded and the precipitate, i.e. crude extract of synaptic corpuscles, was retained. The precipitate was further suspended in 0.32 M cold sucrose solution and then carefully laid on 1.2 M and 0.8 M (10 ml each) cold sucrose gradient solutions which had been laid sequentially on the bottom of the tube, followed by balanced centrifugation (38000 g) at 4 °C for 60 min. A suspension band at the 0.8-1.2 M sucrose interface was carefully collected with a puncture needle, which was placed in 10 ml of 0.32 M cold sucrose solution and mixed well, and equilibrium centrifuged (20000 g) at 4 °C for 30 min. The precipitate was refined brain synaptosomes. […]
(§2) The percentage inhibition of isotope ligand binding by each compound was calculated according to the following equation: […]

For the next experiment, the system named is C57 BL/6J male mice. Briefly: Forced swimming experiment in mice. The experiment is classed as in vivo. To be noted: 24 h after a single i.p. administration; fluoxetine 10 mg/kg, esketamine 10 mg/kg, M2 3-30 mg/kg. The text has this:
1) Forced Swimming Experiment: Also Known as Despair Experiment, an Experiment Usually Used to Test Depression-Like Behavior of Mice
• Animal: C57 BL/6J male mice (18-20 g)
Intraperitoneal injection (i.p)

Experiment [3] relates to DA reuptake in rat brain synaptosomes. Briefly: 3H-DA reuptake by rat brain synaptosomes. The following applies: 100 μM, positive control. The experiment is classed as biochemical.
Source text: At present, it is believed that absolute or relative deficiencies of the central monoamine neurotransmitters 5-hydroxytryptamine (5-HT), norepinephrine (NA) and dopamine (DA) are closely related to depression and anxiety. This experiment was designed to evaluate, by the method of in vitro monoamine reuptake, the inhibitory effect of two samples of tested compound I-5 and compound M2 on reuptake of 5-HT, NA and DA in rat brain synaptosomes. The preparation of in vitro SD rat brain synaptosomes and isotopic tracer method were employed to investigate IC50 of inhibition of monoamine reuptake of DA, 5-HT and NA in two tested samples, in order to explore the possible mechanism of antidepressant and anxiolytic effects of compound I-5 and compound M2.
Synaptosomes were separated using methods in literature to prepare brain synaptosomes. SD rats were rapidly decapitated with a small animal decapitator. After decapitation, brains were taken out quickly and precooled in an ice-water mixture, and the pia mater and vascular tissue were removed. Brain tissue was taken out. 10 times volume (ml/g) of 10 mM Tris HCl buffer (containing 0.32 M sucrose, pH 7.4) was added, an ultrasonic cell pulverizer was used for homogenization (maintaining at a low temperature), and the brain tissue was homogenized and centrifuged for 10 min (4° C., 1,000 g). After balanced centrifugation (1500 g, 10 min) at 4° C., precipitate was discarded, then supernatant was taken, and centrifugation (20000 g) was performed again for 30 min. The supernatant was discarded and the precipitate, i.e. crude extract of synaptic corpuscles, was retained. […] The precipitate was suspended in a small amount of Kreb's buffer (NaCl 118 mM, KCl 4.7 mM, CaCl2) 2.5 mM, MgSO4 1.2 mM, KH2PO4 1.2 mM, NaHCO325 mM and Glucose 11.1 mM, pH 7.2-7.4), BCA method was used for protein quantification, and the operation steps were as described in the description. […]
as §2

The test system of the next experiment is mice. To be noted: Patent C; cited from earlier work.
Where [4] appears, read: comparative study (Table 13), 2.5 mg/kg i.g.
[5] abbreviates: dosage exploration study (Table 12), 2.5 mg/kg i.g.
Setting [6] is: comparative study (Table 13), 20 mg/kg i.g.

“Also recorded” adds a separate entry of the source. Counter-ions that a name gives are not always drawn. Marks after values point to notes of the source that are not given here.

In the case of `Clc1ccc2c(c1)C(c1ccccc1)=NCc1nncn1-2` [Estazolam], in the experiment on ICR mice (setting [4]), the OE % is on record as 69.60 ± 15.12 % and the OT % is 73.46 ± 20.29 %. Also, in the experiment with ICR mice (setting [5]), the OE % is given as 42.78 ± 15.27 % and the OT % is given as 50.12 ± 12.76 %. Further, in the experiment on SD rats (1.24 mg/kg i.g.), the “Number of times of drinking water” value was 540.41/kg2.25*.

Consider `CCN1CCCC1CNC(=O)c1cc(S(N)(=O)=O)ccc1OC` (centres unmarked) [Sulpride], for which, in experiment [1], the “blocking of the enhancement effect of 150 μM compound M2 on sEPSC distribution frequency” value is on record as “can block the enhancement effect; also recorded: significantly block”.

Turning to `CNCCCN1c2ccccc2CCc2ccccc21` [Desipramine hydrochloride], the “inhibition of 3H-NA reuptake by synaptosomes” value in experiment [2] is on record as 100%.

Turning to `CNCCC(Oc1ccc(C(F)(F)F)cc1)c1ccccc1` (centres unmarked) [fluoxetine, Fluoxetine], the antidepressant-like effect entry in the experiment on C57 BL/6J male mice is “no antidepressant-like effect”.

With `CN[C@]1(c2ccccc2Cl)CCCCC1=O` [esketamine, Esketamine], the antidepressant-like effect entry with C57 BL/6J male mice is reported as “had antidepressant-like effect”.

On to `Br.NCCc1cc(O)c(O)cc1O` [6-Hydroxydopamine hydrobromide], for which the “inhibition of 3H-DA reuptake by synaptosomes” value in experiment [3] was 100%.

As to `CC(C)CNC(=O)/C=C/c1cc(I)c2c(c1)OCO2` [Compound II-3], in the experiment on ICR mice (setting [6]), the OE % came to 41.04 ± 9.52 % and the OT % turned out to be 42.99 ± 11.82 %. Also, the “Number of times of drinking water” value in the experiment with SD rats (10 mg/kg i.g.) is given as 363.96 ± 145.26. In addition, in the experiment with mice, the “effective anxiolytic dosage in mice elevated plus maze experiment” value was 10 mg/kg.
